Measurements: patent US20130338217A1, “ANTIBIOTIC COMPOSITION INCLUDING PHLOROTANNIN COMPOUND DERIVED FROM EISENIA BICYCLIS AS EFFECTIVE COMPONENT” (PUKYONG NATIONAL UNIVERSITY INDUSTRY-UNIVERSITY C, priority 2012, published 2013)
In brackets after ≈: the same amount, converted by molar mass. Read-outs that look alike come from different tables or passages of the source.

How the values were obtained:
Type in all cases: cell-based, Staphylococcus aureus
MSSA (KCTC 1927) = experiment: Minimum inhibitory concentration, two-fold serial dilution, MSSA KCTC 1927
Method: (§1) All the bacterial strains used for the Example were obtained from the Korean Collection of Type Cultures (KCTC; Daejeon, Korea) and the Korean Culture Center of Microorganisms (KCCM; Seoul, Korea). The bacterial strains used for the Example were methicillin-susceptible S. aureus (MSSA; KCTC 1927), two MRSA strains (KCCM 40510 and KCCM 40511). All strains were grown in Mueller-Hinton broth (MHB; Difco, Detroit, USA) or Tryptic soy broth (TSB; Difco) for minimum inhibitory concentration (MIC) assay and in Mueller-Hinton agar (MHA; Difco) for disc diffusion.
(§2) MIC means the lowest concentration of antimicrobials that will inhibit the visible growth of microorganisms after overnight incubation. MICS of the extracts and vancomycin were determined by the two-fold serial dilution method in MHB.

MRSA (KCCM 40510) [1] = experiment: Minimum inhibitory concentration, two-fold serial dilution, MRSA KCCM 40510
Method: as §1, §2

MRSA (KCCM 40511) [2] = experiment: Minimum inhibitory concentration, two-fold serial dilution, MRSA KCCM 40511
Method: as §1, §2

MSSA (KCCTC 1927) = experiment: Checkerboard synergy of phlorofucofuroeckol-A and β-lactams, MSSA KCTC 1927; conditions: for FIC index (b): β-lactam with phlorofucofuroeckol-A at 12.5 μg/ml; for FIC index (b) / FIC index (c): synergism ≦0.5, indifference >0.5 to ≦4, antagonism >4; for FIC index (c): β-lactam with phlorofucofuroeckol-A at 25 μg/ml; for MIC: Staphylococcus aureus, MSSA
MRSA (KCCM 40510) [3] = experiment: Checkerboard synergy of phlorofucofuroeckol-A and β-lactams, MRSA KCCM 40510; conditions: for FIC index (b): β-lactam with phlorofucofuroeckol-A at 12.5 μg/ml; for FIC index (b) / FIC index (c): synergism ≦0.5, indifference >0.5 to ≦4, antagonism >4; for FIC index (c): β-lactam with phlorofucofuroeckol-A at 25 μg/ml; for MIC: Staphylococcus aureus
Method: (§3) The interaction between phlorofucofuroeckol-A (PFF) and β-lactams including ampicillin, penicillin and oxacillin against MRSA was tested by the checkerboard method. The synergistic effect was evaluated as a fractional inhibitory concentration (FIC) index. The FIC was calculated as the MICS of an antibiotic or phlorofucofuroeckol-A (PFF) in combination divided by the MIC of the antibiotic or PFF alone as follows.
(§4) The FIC was then summed to derive the FIC index, which indicated synergy when index values were as follows:
(§5) synergism ≦≦0.5, indifference >0.5 to ≦≦4, antagonism >4.
(§6) FICA=MICA in combination/MICA, FICB=MICB in combination/MICB

MRSA (KCCM 40511) [4] = experiment: Checkerboard synergy of phlorofucofuroeckol-A and β-lactams, MRSA KCCM 40511; conditions: for FIC index (b): β-lactam with phlorofucofuroeckol-A at 12.5 μg/ml; for FIC index (b) / FIC index (c): synergism ≦0.5, indifference >0.5 to ≦4, antagonism >4; for FIC index (c): β-lactam with phlorofucofuroeckol-A at 25 μg/ml; for MIC: Staphylococcus aureus
Method: as §3, §4, §5, §6

[5] = Table 5, PFF and β-lactams, mecA positive strain
[6] = in combination with phlorofucofuroeckol-A at 12.5 μg/ml
[7] = in combination with phlorofucofuroeckol-A at 25 μg/ml
[8] = Staphylococcus aureus, Table 6, isolated phlorotannins, read-out: MIC
[9] = Staphylococcus aureus, Table 5, PFF and β-lactams, mecA positive strain, read-out: MIC
[10] = in combination with phlorofucofuroeckol-A at 12.5 μg/ml, read-out: MIC of β-lactam (B)
[11] = in combination with phlorofucofuroeckol-A at 25 μg/ml, read-out: MIC of β-lactam (C)
[12] = without phlorofucofuroeckol-A, read-out: MIC of β-lactam (A)

For Oc1cc(O)c2oc3cc(O)c4oc5cc(O)cc(O)c5oc4c3oc2c1 [DD, dioxinodehydroeckol], the MIC (MSSA (KCTC 1927); Staphylococcus aureus) was 64 µg/mL (≈ 173 µM), the MIC (MRSA (KCCM 40510) [1]; Staphylococcus aureus) was 64 µg/mL (≈ 173 µM) and the MIC (MRSA (KCCM 40511) [2]; Staphylococcus aureus) was 64 µg/mL (≈ 173 µM).
penicillin was tested, and the MIC (MSSA (KCTC 1927); Table 5, PFF and β-lactams, mecA negative strain) was 0.125 µg/mL, the MIC (MRSA (KCCM 40510) [1]; [5]) was 512 µg/mL and the MIC (MRSA (KCCM 40511) [2]; [5]) was 256 µg/mL. The “MIC of β-lactam (B)” value (MSSA (KCCTC 1927); [6]) was 0.125 µg/mL, the “MIC of β-lactam (C)” value (MSSA (KCCTC 1927); [7]) was 0.125 µg/mL and the “MIC of β-lactam (A)” value (MSSA (KCCTC 1927); without phlorofucofuroeckol-A) was 0.125 µg/mL. For the same molecule, the “FIC index (b)” value (MSSA (KCCTC 1927)) was 1.391, the “FIC index (c)” value (MSSA (KCCTC 1927)) was 1.781 and the “MIC of β-lactam (B)” value (MRSA (KCCM 40510) [3]; [6]) was 4 µg/mL. The “MIC of β-lactam (C)” value (MRSA (KCCM 40510) [3]; [7]) was 2 µg/mL, the “MIC of β-lactam (A)” value (MRSA (KCCM 40510) [3]; without phlorofucofuroeckol-A) was 512 µg/mL and the “FIC index (b)” value (MRSA (KCCM 40510) [3]) was 0.399. The “FIC index (c)” value (MRSA (KCCM 40510) [3]) was 0.395, the “MIC of β-lactam (B)” value (MRSA (KCCM 40511) [4]; [6]) was 1 µg/mL and the “MIC of β-lactam (C)” value (MRSA (KCCM 40511) [4]; [7]) was 0.5 µg/mL. The “MIC of β-lactam (A)” value (MRSA (KCCM 40511) [4]; without phlorofucofuroeckol-A) was 256 µg/mL, the “FIC index (b)” value (MRSA (KCCM 40511) [4]) was 0.395 and the “FIC index (c)” value (MRSA (KCCM 40511) [4]) was 0.393.
Oc1cc(O)cc(Oc2c(O)cc(O)c3c2Oc2c(O)cc(O)cc2O3)c1 [EK, eckol] was tested, and the MIC (MSSA (KCTC 1927); [8]) was 64 µg/mL (≈ 172 µM), the MIC (MRSA (KCCM 40510) [1]; [8]) was 64 µg/mL (≈ 172 µM) and the MIC (MRSA (KCCM 40511) [2]; [8]) was 64 µg/mL (≈ 172 µM).
Work on Oc1cc(O)cc(Oc2c(O)cc(O)c3c2Oc2c(O)cc(Oc4c(O)cc(Oc5c(O)cc(O)c6c5Oc5c(O)cc(O)cc5O6)cc4O)cc2O3)c1 [DE, dieckol] yielded an MIC (MSSA (KCTC 1927); [8]) of 32 µg/mL (≈ 43.1 µM), an MIC (MRSA (KCCM 40510) [1]; [8]) of 32 µg/mL (≈ 43.1 µM) and an MIC (MRSA (KCCM 40511) [2]; Staphylococcus aureus) of 64 µg/mL (≈ 86.2 µM).
For Cc1onc(-c2ccccc2)c1C(=O)N[C@@H]1C(=O)N2[C@@H]1SC(C)(C)[C@@H]2C(=O)O [Oxacillin, oxacillin], the MIC (MSSA (KCTC 1927); Staphylococcus aureus, Table 5, PFF and β-lactams, mecA negative strain, read-out: MIC) was 0.063 µg/mL (≈ 0.157 µM), the MIC (MRSA (KCCM 40510) [1]; [9]) was 256 µg/mL (≈ 638 µM) and the MIC (MRSA (KCCM 40511) [2]; [9]) was 128 µg/mL (≈ 319 µM). It also gave an MIC (MSSA (KCCTC 1927); [10]) of 0.063 µg/mL, an MIC (MSSA (KCCTC 1927); [11]) of 0.063 µg/mL and an MIC (MSSA (KCCTC 1927); [12]) of 0.063 µg/mL. The “FIC index (b)” value (MSSA (KCCTC 1927)) was 1.391, the “FIC index (c)” value (MSSA (KCCTC 1927)) was 1.781 and the MIC (MRSA (KCCM 40510) [3]; [10]) was 8 µg/mL. The MIC (MRSA (KCCM 40510) [3]; [11]) was 4 µg/mL, the MIC (MRSA (KCCM 40510) [3]; [12]) was 256 µg/mL and the “FIC index (b)” value (MRSA (KCCM 40510) [3]) was 0.422. For the same molecule, the “FIC index (c)” value (MRSA (KCCM 40510) [3]) was 0.407, the MIC (MRSA (KCCM 40511) [4]; [10]) was 1 µg/mL and the MIC (MRSA (KCCM 40511) [4]; [11]) was 0.5 µg/mL. The MIC (MRSA (KCCM 40511) [4]; [12]) was 128 µg/mL, the “FIC index (b)” value (MRSA (KCCM 40511) [4]) was 0.399 and the “FIC index (c)” value (MRSA (KCCM 40511) [4]) was 0.395.
